Test results reported in patent US6362165B1, “Hydroxyphenyl derivatives with HIV integrase inhibitory properties” (Pharmacor Inc., priority 1999, dated 2002).

These compounds were tested against T1, HIV-1 integrase (Human immunodeficiency virus type 1 group M subtype B, UniProt P04585) (assay: HIV-1 integrase inhibition assay (procedure of Burke et al.; radiolabeled duplex substrate, U5 end of HIV LTR)). Details: Table 1; 3,4-dihydroxy derivative of the root amino acid, formula Ic; read-out: Anti-integrase activity (IC50) 3,4-dihydroxy derivative.
Format: biochemical
Method: For the purposes of Table 1 (and Table 2) the HIV-1 integrase inhibition assay was carried out following a known procedure (Burke, Jr. T. R. et al., J. Med. Chem. 38, 4171-4178 (1995)). A suitable radiolabeled duplex substrate corresponding to the U5 end of the HIV LTR was used.

Row | Compound | IC50 [µM]
1 | O=C(N[C@@H](Cc1ccc(O)cc1)C(=O)NCCc1ccc(O)c(O)c1)c1ccc(O)c(O)c1 [Example 12, N-[N′-(3′,4′-dihydroxybenzoyl)-L-tyrosyl]-dopamine] | 8
2 | O=C(N[C@@H](Cc1ccc(O)c(O)c1)C(=O)NCCc1ccc(O)c(O)c1)c1ccc(O)c(O)c1 [Example 16, N-[N′-(3′,4′-dihydroxybenzoyl)-L-3,4-dihydroxy-phenylalanyl]-dopamine] | 8
3 | O=C(NC(Cc1ccc(O)c(F)c1)C(=O)NCCc1ccc(O)c(O)c1)c1ccc(O)c(O)c1 (racemic) [Example 48, N-[N′-(3′,4′-dihydroxybenzoyl)-DL-3-fluorotyrosinyl]-dopamine] | 1.4
4 | CC(C)C[C@H](NC(=O)c1ccc(O)c(O)c1)C(=O)NCCc1ccc(O)c(O)c1 [Example 26, N-[N′-(3′,4′-dihydroxybenzoyl)-L-leucyl]-dopamine] | 45
5 | O=C(N[C@H](Cc1ccc(O)cc1)C(=O)NCCc1ccc(O)c(O)c1)c1ccc(O)c(O)c1 [Example 10, N-[N′-(3′,4′-dihydroxybenzoyl)-D-tyrosyl]-dopamine] | 67
6 | O=C(NC(Cc1cccc(O)c1)C(=O)NCCc1ccc(O)c(O)c1)c1ccc(O)c(O)c1 (racemic) [Example 50, N-[N′-(3′,4′-dihydroxybenzoyl)-DL-m-tyrosyl]-dopamine] | 1.3
7 | O=C(N[C@@H](Cc1c[nH]cn1)C(=O)NCCc1ccc(O)c(O)c1)c1ccc(O)c(O)c1 [Example 33] | 0.1
8 | O=C(NCCc1ccc(O)c(O)c1)[C@@H]1CCCN1C(=O)c1ccc(O)c(O)c1 [Example 28, N-[N′-(3′,4′-dihydroxybenzoyl)-L-prolyl]-dopamine] | 80
9 | O=C(CC[C@H](NC(=O)c1ccc(O)c(O)c1)C(=O)NCCc1ccc(O)c(O)c1)OCc1ccccc1 [Example 23, N-[′-(3′,4′-dihydroxybenzoyl)-δ-benzyloxy-L-glutamyl]-dopamine] | 26
10 | C[C@H](NC(=O)c1ccc(O)c(O)c1)C(=O)NCCc1ccc(O)c(O)c1 [Example 20, N-[N′-(3′, 4′-dihydroxybenzoyl)-L-alanyl]-dopamine] | 71
11 | O=C(CC[C@H](NC(=O)c1ccc(O)c(O)c1)C(=O)OCc1ccccc1)NCCc1ccc(O)c(O)c1 [Example 49, N-(3,4-dihydroxybenzoyl)-δ-N′-(3′,4′-dihydroxyphenethyl)-L-glutamine α-benzyl ester] | 2.2
12 | O=C(N[C@@H](Cc1c[nH]c2ccccc12)C(=O)NCCc1ccc(O)c(O)c1)c1ccc(O)c(O)c1 [Example 30, N-[N′-(3′,4′-dihydroxybenzoyl)-L-tryptophyl]-dopamine] | 17
13 | O=C(CC[C@H](NC(=O)c1ccc(O)c(O)c1)C(=O)NCCc1ccc(O)c(O)c1)NCCc1ccc(O)c(O)c1 [Example 22, N-[′-(3′,4′-dihydroxybenzoyl)-δ-(3-hydroxytyramine)-L-glutamyl]-dopamine] | 11
14 | O=C(N[C@@H](Cc1ccccc1)C(=O)NCCc1ccc(O)c(O)c1)c1ccc(O)c(O)c1 [Example 14, N-[N′-(3′,4′-dihydroxybenzoyl)-L-phenylalanyl]-dopamine] | 45

Same assay, conditions: Table 1; 4-hydroxy derivative of the root amino acid, formula Ic; read-out: Anti-integrase activity (IC50) 4-hydroxy derivative

Row | Compound | IC50 [µM]
15 | C[C@H](NC(=O)c1ccc(O)cc1)C(=O)NCCc1ccc(O)c(O)c1 [Example 19, N-[N′-(p-hydroxybenzoyl)-L-alanyl]-dopamine] | 160
16 | O=C(CC[C@H](NC(=O)c1ccc(O)cc1)C(=O)NCCc1ccc(O)c(O)c1)NCCc1ccc(O)c(O)c1 [Example 21, N-[′-(p-hydroxybenzoyl)-6-(3-hydroxytyramine)-L-glutamyl]-dopamine] | 64
17 | O=C(NCCc1ccc(O)c(O)c1)[C@@H]1CCCN1C(=O)c1ccc(O)cc1 [Example 27, N-[N′-(p-hydroxybenzoyl)-L-prolyl]-dopamine] | > 200
18 | O=C(N[C@@H](Cc1ccc(O)cc1)C(=O)NCCc1ccc(O)c(O)c1)c1ccc(O)cc1 [Example 11, N-[N′-(p-hydroxybenzoyl)-L-tyrosyl]-dopamine] | 88
19 | N-[N′-(p-hydroxybenzoyl)-L-tryptophanyl]-dopamine [Example 29] | 245
20 | O=C(N[C@@H](Cc1ccccc1)C(=O)NCCc1ccc(O)c(O)c1)c1ccc(O)cc1 [Example 13, N-[N′-(p-hydroxybenzoyl)-L-phenylalanyl]-dopamine] | > 200
21 | CC(C)C[C@H](NC(=O)c1ccc(O)cc1)C(=O)NCCc1ccc(O)c(O)c1 [Example 25, N-[N′-(p-hydroxybenzoyl)-L-leucyl]-dopamine] | > 200

Same assay, conditions: Table 2; dipeptide derivatives of I; read-out: Anti-integrase activity (IC50)

Row | Compound | IC50 [µM]
22 | O=C(CNC(=O)c1ccc(O)c(O)c1)N[C@@H](Cc1ccc(O)cc1)C(=O)O [Example 39, N-[N′-(3′,4′-dihydroxybenzoyl)-glycyl]-L-tyrosine] | > 200
23 | O=C(N[C@@H](Cc1ccc(O)cc1)C(=O)N[C@@H](Cc1ccc(O)cc1)C(=O)NCCc1ccc(O)c(O)c1)c1ccc(O)c(O)c1 [Example 51] | 17
24 | O=C(C[C@H](NC(=O)[C@H](Cc1ccc(O)cc1)NC(=O)c1ccc(O)c(O)c1)C(=O)NCCc1ccc(O)c(O)c1)OCc1ccccc1 [Example 41, N-[N′-[N″-(3″,4″-dihydroxybenzoyl)-L-tyrosyl]-L-γ-O-benzyl-aspartyl]-dopamine] | 20
25 | O=C(N[C@@H](Cc1ccc(O)cc1)C(=O)N[C@@H](Cc1ccc(O)cc1)C(=O)O)c1ccc(O)c(O)c1 [Example 36, N-[N′-(3′,4′-dihydroxybenzoyl)-L-tyrosyl]-L-tyrosine] | 177
26 | O=C(O)CNC(=O)[C@H](Cc1ccc(O)cc1)NC(=O)c1ccc(O)c(O)c1 [Example 37, N-[N′-(3′,4′-dihydroxybenzoyl)-L-tyrosyl]-glycine] | > 200

Each compound was assayed against T1, HIV-1 integrase (assay: HIV-1 integrase inhibition assay (based on procedure of Hazuda et al.)). Details: Table 3; Nα-caffeoyl derivative of the root amino acid, general formula I; read-out: Anti-integrase activity (IC50) Nα-Caffeoyl derivative.
Format: biochemical
Description: For the purposes of Table 3 the HIV-1 integrase inhibition assay was based on a known procedure (Hazuda, D. J. et al., Nucleic Acids Res. 22, 1121-1122 (1994)).

Row | Compound | IC50 [µM]
27 | O=C(/C=C/c1ccc(O)c(O)c1)N[C@@H](CC(=O)OCc1ccccc1)C(=O)NCCc1ccc(O)c(O)c1 [Example 61, N-(N′-caffeoyl-Oγ-benzyl-L-aspartyl)dopamine] | 3.5
28 | O=C(/C=C/c1ccc(O)c(O)c1)N[C@@H](Cc1ccc(O)cc1)C(=O)NCc1ccc(O)c(O)c1 [Example 64, N-(N′-caffeoyl-L-tyrosyl)-3,4-dihydroxybenzylamine] | 3
29 | N-(N′-caffeoyl-L-tryptophanyl)dopamine [Example 53] | 1.5
30 | O=C(/C=C/c1ccc(O)c(O)c1)N[C@@H](CO)C(=O)NCCc1ccc(O)c(O)c1 [Example 59, N-(N′-caffeoyl-L-seryl)dopamine] | 0.14
31 | O=C(O)C[C@H](NC(=O)/C=C/c1ccc(O)c(O)c1)C(=O)NCCc1ccc(O)c(O)c1 [Example 62, N-(N′-caffeoyl-L-aspartyl)dopamine] | 3.5
32 | O=C(C=Cc1ccc(O)c(O)c1)NC(CC(=O)NCCc1ccc(O)c(O)c1)C(=O)OCc1ccccc1 [Example 52, Nα-caffeoyl-Nγ-(3-hydroxytyramine)-L-aspartic acid benzyl ester] | 2.2
33 | O=C(/C=C/c1ccc(O)c(O)c1)N[C@@H](Cc1ccc(O)c(O)c1)C(=O)NCCc1ccc(O)c(O)c1 [Example 54, N-(N′-caffeoyl-L-3,4-dihydroxyphenylalanyl)dopamine] | 0.62
34 | O=C(/C=C/c1ccc(O)c(O)c1)N[C@@H](Cc1ccc(O)c(O)c1)C(=O)NCc1ccc(O)c(O)c1 [Example 55, N-(N′-caffeoyl-L-3,4-dihydroxyphenylalanyl)-3,4-dihydroxybenzylamine] | 0.38
35 | O=C(C=Cc1ccc(O)c(O)c1)NC(CCC(=O)NCCc1ccc(O)c(O)c1)C(=O)NCCc1ccc(O)c(O)c1 [Example 60, N-[N′-caffeoyl-Nα-(3-hydroxytyramine)-L-glutamyl]dopamine] | 0.105

Same assay, conditions: Table 3; other Nα-3,4-dihydroxyphenyl derivative of the root amino acid, general formula I; read-out: Anti-integrase activity (IC50) Other Nα-3,4-dihydroxyphenyl derivative

Row | Compound | IC50 [µM]
36 | O=C(Cc1ccc(O)c(O)c1)N[C@@H](Cc1ccc(O)c(O)c1)C(=O)NCCc1ccc(O)c(O)c1 [Example 57, N-[N′-(3′,4′-dihydroxyphenylacetyl)-L-3,4-dihydroxyphenylalanyl]dopamine] | 0.106
37 | O=C(CC[C@H](NC(=O)c1ccc(O)c(O)c1)C(=O)O)NCCc1ccc(O)c(O)c1 [Example 63, Nα-(3,4-dihydroxybenzoyl)-Nδ-(3-hydroxytyramine) L-glutamic acid] | 2.8
38 | O=C(N[C@@H](Cc1ccc(O)cc1)C(=O)NCc1ccc(O)c(O)c1)c1ccc(O)c(O)c1 [Example 56, N-[N′-(3′,4′-dihydroxybenzoyl)-L-tyrosyl]-3,4-dihydroxybenzylamine] | 0.78
39 | O=C(N[C@@H](CS)C(=O)NCCc1ccc(O)c(O)c1)c1ccc(O)c(O)c1 [Example 58, N-[N′-(3′,4′-dihydroxybenzoyl)-L-cysteinyl]dopamine] | 0.21
